# Inconclusive results are not listed. Calls of active or inactive are those of the source. No rule for the calls is given here.
# Molecular target: Procathepsin L (Homo sapiens) (UniProt P07711)
# Experiment: CTSL inhibitor potency, thiol present – biochemical, cysteine present, dose response (AID 1627)
# Details: purified cathepsin L, fluorogenic substrate, with cysteine
# Chain of Procathepsin L (Homo sapiens) (P07711 114-288 limits assumed): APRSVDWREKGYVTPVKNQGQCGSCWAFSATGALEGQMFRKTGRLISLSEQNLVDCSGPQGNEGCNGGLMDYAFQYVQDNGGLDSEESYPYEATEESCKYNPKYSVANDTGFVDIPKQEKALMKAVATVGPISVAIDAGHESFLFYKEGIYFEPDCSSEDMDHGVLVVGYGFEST
# Chain of Procathepsin L (Homo sapiens) (P07711 292-333 limits assumed): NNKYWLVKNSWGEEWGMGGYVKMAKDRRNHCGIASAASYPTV
row,Compound,IC50
1,CC(=O)c1c(O)n(C)c(=S)n(-c2ccccc2)c1=O,> 50 µM (inactive)
2,O=S(=O)(/N=S1/CC=CCN1S(=O)(=O)c1ccccc1)c1ccccc1 (stereo not given),> 50 µM (inactive)
3,CN1CCc2c(sc3ncn4nc(-c5ccccc5O)nc4c23)C1,32 µM
4,CC1=C(C(=O)Nc2ccc(F)cc2)C(c2cccc(C)c2)n2nc(CCCO)nc2N1 (stereo not given),> 50 µM (inactive)
5,CCCCOc1ccc(C2C3CN(C(=O)OCC)CC=C3C(C#N)=C(N)C2(C#N)C#N)cc1OC (stereo not given),> 50 µM (inactive)
6,N#CC1=C(N)Oc2c(sc3ccccc23)C1c1ccco1 (stereo not given),> 50 µM (inactive)
7,Nc1nc2n(n1)C1(CCCCC1)C1=C(CCCC1)N2,> 50 µM (inactive)
8,COc1ccc(OC)c(C2C(C#N)=C(N)Oc3cc(C)n(Cc4ccccn4)c(=O)c32)c1 (stereo not given),> 50 µM (inactive)
9,CC(=O)Nc1nc2n(n1)C(c1ccc(F)cc1)C=C(c1ccccc1)N2 (stereo not given),> 50 µM (inactive)
10,CCCCc1[nH]nc2c1C1(C(=O)N(CC)c3ccccc31)C(C#N)=C(N)O2 (stereo not given),> 50 µM (inactive)

# From PubChem BioAssay AID1627 (PCMD, 2009)
